This note sets out measurements from US11739078B2, “Methods of inhibiting kinases” (INSILICO MEDICINE IP LIMITED, priority 2019, dated 2023).

Experiment [1] has as its target TNIK (Homo sapiens (Human), UniProt Q9UKE5). In words: TNIK enzymatic assay (radiometric kinase inhibition). In kind it is biochemical. The procedure:
The compounds were studied for function as TNIK inhibitors to generate the data of Table 1. […] (specific activity and concentration as required). The reaction is initiated by the addition of the Mg/ATP mix. After incubation for 40 minutes at room temperature, the reaction is stopped by the addition of phosphoric acid to a concentration of 0.5%.

Experiment [2] deals with MAP4K4 (h) (Homo sapiens (Human), UniProt O95819). Description: MAP4K4 in vitro kinase assay (radiometric). In kind it is biochemical. To be noted: read-out: MAP4K4_IC50. Here is the method:
(specific activity and concentration as required). The reaction is initiated by the addition of the Mg/ATP mix. After incubation for 40 minutes at room temperature, the reaction is stopped by the addition of phosphoric acid to a concentration of 0.5%.

The mark [3] stands for this setting: TNIK enzymatic assay, Table 1, read-out: IC50.

SMILES strings stand for the structures. Where two headings read alike, the source gives them in different places. Where only a bound is given, the exact number is not on record here.

TNIK, sequence (Q9UKE5 whole entry): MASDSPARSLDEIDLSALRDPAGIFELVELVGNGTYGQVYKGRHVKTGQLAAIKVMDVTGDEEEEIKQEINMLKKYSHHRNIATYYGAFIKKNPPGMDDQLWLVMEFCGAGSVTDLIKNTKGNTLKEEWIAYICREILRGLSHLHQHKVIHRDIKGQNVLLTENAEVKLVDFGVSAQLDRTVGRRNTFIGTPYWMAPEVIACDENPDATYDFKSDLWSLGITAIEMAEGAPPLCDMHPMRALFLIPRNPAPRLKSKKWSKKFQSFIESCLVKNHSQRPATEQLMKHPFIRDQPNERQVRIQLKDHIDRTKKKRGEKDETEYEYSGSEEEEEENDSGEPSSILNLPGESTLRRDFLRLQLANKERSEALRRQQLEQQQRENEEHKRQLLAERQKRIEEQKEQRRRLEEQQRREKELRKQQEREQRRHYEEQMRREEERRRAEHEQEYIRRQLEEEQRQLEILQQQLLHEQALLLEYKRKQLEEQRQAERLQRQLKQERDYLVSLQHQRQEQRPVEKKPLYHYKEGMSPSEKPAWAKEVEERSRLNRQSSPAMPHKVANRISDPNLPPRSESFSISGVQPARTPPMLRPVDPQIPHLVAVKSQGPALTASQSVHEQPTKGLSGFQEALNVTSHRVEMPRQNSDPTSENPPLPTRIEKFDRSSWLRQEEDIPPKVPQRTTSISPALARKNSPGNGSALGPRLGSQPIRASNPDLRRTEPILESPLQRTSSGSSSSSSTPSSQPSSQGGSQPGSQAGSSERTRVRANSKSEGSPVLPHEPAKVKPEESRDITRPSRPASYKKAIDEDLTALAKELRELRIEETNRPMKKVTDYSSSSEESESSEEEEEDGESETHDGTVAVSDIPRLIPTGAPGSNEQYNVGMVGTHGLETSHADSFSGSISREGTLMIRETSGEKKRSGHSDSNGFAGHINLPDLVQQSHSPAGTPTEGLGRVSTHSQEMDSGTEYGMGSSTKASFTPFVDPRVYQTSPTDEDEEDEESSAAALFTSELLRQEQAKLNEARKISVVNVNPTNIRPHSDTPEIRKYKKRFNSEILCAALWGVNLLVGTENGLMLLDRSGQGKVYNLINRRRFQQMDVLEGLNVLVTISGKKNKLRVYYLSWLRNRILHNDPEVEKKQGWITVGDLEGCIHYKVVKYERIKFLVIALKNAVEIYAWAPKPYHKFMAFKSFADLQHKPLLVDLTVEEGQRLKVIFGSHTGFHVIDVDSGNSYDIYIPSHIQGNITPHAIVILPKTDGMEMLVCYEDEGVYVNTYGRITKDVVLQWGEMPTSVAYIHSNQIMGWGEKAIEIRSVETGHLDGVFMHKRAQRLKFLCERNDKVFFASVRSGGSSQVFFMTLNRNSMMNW
MAP4K4 (h), sequence (O95819 whole entry): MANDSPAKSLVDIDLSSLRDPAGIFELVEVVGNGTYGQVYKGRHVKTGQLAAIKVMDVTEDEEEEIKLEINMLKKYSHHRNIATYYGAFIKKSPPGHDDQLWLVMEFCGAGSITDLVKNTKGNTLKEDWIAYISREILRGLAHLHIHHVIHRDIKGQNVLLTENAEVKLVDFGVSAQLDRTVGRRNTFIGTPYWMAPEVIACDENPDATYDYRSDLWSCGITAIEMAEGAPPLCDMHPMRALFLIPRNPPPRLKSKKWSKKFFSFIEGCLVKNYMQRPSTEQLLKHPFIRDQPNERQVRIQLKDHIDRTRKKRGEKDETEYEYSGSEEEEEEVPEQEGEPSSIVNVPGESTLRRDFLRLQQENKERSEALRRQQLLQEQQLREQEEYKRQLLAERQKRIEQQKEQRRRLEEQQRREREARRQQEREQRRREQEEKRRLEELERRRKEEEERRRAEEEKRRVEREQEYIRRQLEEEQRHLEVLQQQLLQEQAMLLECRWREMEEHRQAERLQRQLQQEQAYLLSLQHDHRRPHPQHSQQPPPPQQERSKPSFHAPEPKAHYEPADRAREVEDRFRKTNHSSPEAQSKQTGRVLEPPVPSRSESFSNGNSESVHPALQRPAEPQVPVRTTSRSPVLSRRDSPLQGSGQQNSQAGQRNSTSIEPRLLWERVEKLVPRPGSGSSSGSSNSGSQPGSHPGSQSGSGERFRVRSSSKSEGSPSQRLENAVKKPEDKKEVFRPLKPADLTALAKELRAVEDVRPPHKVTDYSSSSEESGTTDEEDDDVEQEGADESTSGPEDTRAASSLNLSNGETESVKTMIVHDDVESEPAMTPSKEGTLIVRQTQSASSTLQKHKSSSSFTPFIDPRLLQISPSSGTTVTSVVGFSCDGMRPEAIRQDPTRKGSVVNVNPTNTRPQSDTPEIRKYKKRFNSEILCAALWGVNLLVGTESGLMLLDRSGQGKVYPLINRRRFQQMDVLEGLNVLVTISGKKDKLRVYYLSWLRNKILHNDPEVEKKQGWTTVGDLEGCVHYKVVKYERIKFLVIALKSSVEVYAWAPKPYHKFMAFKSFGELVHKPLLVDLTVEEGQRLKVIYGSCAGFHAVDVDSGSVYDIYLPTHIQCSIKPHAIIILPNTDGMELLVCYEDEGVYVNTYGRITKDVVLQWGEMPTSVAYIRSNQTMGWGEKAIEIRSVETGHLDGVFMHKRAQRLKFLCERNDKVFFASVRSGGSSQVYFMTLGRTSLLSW

In the case of `O=C(Nc1cc[nH]c(=O)c1)c1ccc(-c2c(-c3ccc(F)cc3)ncn2C2COC[C@@H]2F)o1` (mixture of isomers) [Compound A-57, rac-5-(4-(4-fluorophenyl)-1-((4R)-4-fluorotetrahydrofuran-3-yl)-1H-imidazol-5-yl)-N-(2-oxo-1,2-dihydropyridin-4-yl)furan-2-carboxamide], the IC50 in experiment [1] (read-out: TNIK_IC50) was 1160 nM.

Consider `O=C(Nc1ccc(F)cc1F)c1ccc(-c2c(-c3ccc(F)cc3)ncn2C2CCCC2)o1` [Compound 1, 5-(1-cyclopentyl-4-(4-fluorophenyl)-1H-imidazol-5-yl)-N-(2,4-difluorophenyl)furan-2-carboxamide], for which the IC50 in experiment [2] was determined as 97.6 nM; in experiment [1] (setting [3]), 30 nM; in experiment [1] (read-out: TNIK_IC50) it was 30 nM.

With `COc1ccc(OC)c(NC(=O)c2ccc(-c3c(-c4ccc(F)cc4)ncn3C3CCCC3)o2)c1` [Compound 2, 5-(1-cyclopentyl-4-(4-fluorophenyl)-1H-imidazol-5-yl)-N-(2,5-dimethoxyphenyl)furan-2-carboxamide], the IC50 in experiment [2] was 10.2 nM; in experiment [1] (setting [3]) it was less than 10 nM; in experiment [1] (read-out: TNIK_IC50), 3.07 nM.

With `O=C(Nc1cc(F)ccc1F)c1ccc(-c2c(-c3ccc(F)cc3)ncn2C2CCCC2)o1` [Compound 3, 5-(1-cyclopentyl-4-(4-fluorophenyl)-1H-imidazol-5-yl)-N-(2,5-difluorophenyl)furan-2-carboxamide], the IC50 in experiment [2] was 24.6 nM; in experiment [1] (setting [3]), less than 10 nM; in experiment [1] (read-out: TNIK_IC50), 3.82 nM.

For the compound `COc1cccc(NC(=O)c2ccc(-c3c(-c4ccc(C)cc4)ncn3C3CCCCC3)o2)c1` [Compound 4, 5-(1-cyclohexyl-4-(p-tolyl)-1H-imidazol-5-yl)-N-(3-methoxyphenyl)furan-2-carboxamide], the IC50 is greater than 1000 nM in experiment [2], 9320 nM in experiment [1] (setting [3]) and 9320 nM in experiment [1] (read-out: TNIK_IC50).

For the compound `COc1ccc(NC(=O)c2ccc(-c3c(-c4ccc(C)cc4)ncn3C3CCCCC3)o2)cc1` [Compound 5, 5-(1-cyclohexyl-4-(p-tolyl)-1H-imidazol-5-yl)-N-(4-methoxyphenyl)furan-2-carboxamide], the IC50 in experiment [2] was greater than 1000 nM; in experiment [1] (setting [3]), 2410 nM; in experiment [1] (read-out: TNIK_IC50) it was 2410 nM.

With `COc1cc(NC(=O)c2ccc(-c3c(-c4ccc(C)cc4)ncn3C3CCCCC3)o2)cc(OC)c1` [Compound 6, 5-(1-cyclohexyl-4-(p-tolyl)-1H-imidazol-5-yl)-N-(3,5-dimethoxyphenyl)furan-2-carboxamide], the values for the IC50 in experiment [2], in experiment [1] (setting [3]) and in experiment [1] (read-out: TNIK_IC50) were greater than 1000 nM, 9730 nM and 9730 nM, respectively.

Take `Cc1ccc(-c2ncn(C3CCCCC3)c2-c2ccc(C(=O)Nc3ccccc3F)o2)cc1` [Compound 7, 5-(1-cyclohexyl-4-(p-tolyl)-1H-imidazol-5-yl)-N-(2-fluorophenyl)furan-2-carboxamide]: the IC50 in experiment [2] is greater than 1000 nM; in experiment [1] (setting [3]), 1510 nM; in experiment [1] (read-out: TNIK_IC50), 1510 nM.

For the compound `Cc1ccc(-c2ncn(C3CCCCC3)c2-c2ccc(C(=O)Nc3ccc(F)cc3)o2)cc1` [Compound 8, 5-(1-cyclohexyl-4-(p-tolyl)-1H-imidazol-5-yl)-N-(4-fluorophenyl)furan-2-carboxamide], the IC50 is greater than 1000 nM in experiment [2], 4450 nM in experiment [1] (setting [3]) and 4450 nM in experiment [1] (read-out: TNIK_IC50).

With `CC(=O)c1ccc(NC(=O)c2ccc(-c3c(-c4ccc(F)cc4)ncn3C3CCCC3)o2)cc1` [Compound 9, N-(4-acetylphenyl)-5-(1-cyclopentyl-4-(4-fluorophenyl)-1H-imidazol-5-yl)furan-2-carboxamide], the IC50 in experiment [2] was 36.8 nM; in experiment [1] (setting [3]), 11 nM; in experiment [1] (read-out: TNIK_IC50), 11 nM.

`O=C(Nc1ccccc1C(F)(F)F)c1ccc(-c2c(-c3ccc(F)cc3)ncn2C2CCCC2)o1` [Compound 10, 5-(1-cyclopentyl-4-(4-fluorophenyl)-1H-imidazol-5-yl)-N-(2-(trifluoromethyl)phenyl)furan-2-carboxamide]: the values for the IC50 in experiment [2], in experiment [1] (setting [3]) and in experiment [1] (read-out: TNIK_IC50) were 30.4 nM, 10 nM and less than 10 nM, respectively.

For the compound `COc1ccc(NC(=O)c2ccc(-c3c(-c4ccc(F)cc4)ncn3C3CCCC3)o2)cc1OC` [Compound 11, 5-(1-cyclopentyl-4-(4-fluorophenyl)-1H-imidazol-5-yl)-N-(3,4-dimethoxyphenyl)furan-2-carboxamide], the IC50 amounted to 93.2 nM in experiment [2], 42 nM in experiment [1] (setting [3]) and 42 nM in experiment [1] (read-out: TNIK_IC50).

As to `COc1cccc(NC(=O)c2ccc(-c3c(-c4ccc(F)cc4)ncn3C3CCCC3)o2)c1` [Compound 12, 5-(1-cyclopentyl-4-(4-fluorophenyl)-1H-imidazol-5-yl)-N-(3-methoxyphenyl)furan-2-carboxamide], the IC50 in experiment [2] worked out at 141 nM; in experiment [1] (setting [3]), 101 nM; in experiment [1] (read-out: TNIK_IC50), 101 nM.

In the case of `O=C(Nc1ccccc1Br)c1ccc(-c2c(-c3ccc(F)cc3)ncn2C2CCCC2)o1` [Compound 13, N-(2-bromophenyl)-5-(1-cyclopentyl-4-(4-fluorophenyl)-1H-imidazol-5-yl)furan-2-carboxamide], the IC50 was 15.2 nM in experiment [2], less than 10 nM in experiment [1] (setting [3]) and 12 nM in experiment [1] (read-out: TNIK_IC50).

On to `O=C(Nc1ccccc1Cl)c1ccc(-c2c(-c3ccc(F)cc3)ncn2C2CCCC2)o1` [Compound 14, N-(2-chlorophenyl)-5-(1-cyclopentyl-4-(4-fluorophenyl)-1H-imidazol-5-yl)furan-2-carboxamide], for which the IC50 in experiment [2] is 10.9 nM; in experiment [1] (setting [3]), less than 10 nM; in experiment [1] (read-out: TNIK_IC50), 15.2 nM.

As for `O=C(Nc1ccc(Cl)cc1)c1ccc(-c2c(-c3ccc(F)cc3)ncn2C2CCCC2)o1` [Compound 15, N-(4-chlorophenyl)-5-(1-cyclopentyl-4-(4-fluorophenyl)-1H-imidazol-5-yl)furan-2-carboxamide], the values for the IC50 in experiment [2], in experiment [1] (setting [3]) and in experiment [1] (read-out: TNIK_IC50) were 116 nM, 101 nM and 101 nM, respectively.

With `Cc1cc(Cl)ccc1NC(=O)c1ccc(-c2c(-c3ccc(F)cc3)ncn2C2CCCC2)o1` [Compound 16, N-(4-chloro-2-methylphenyl)-5-(1-cyclopentyl-4-(4-fluorophenyl)-1H-imidazol-5-yl)furan-2-carboxamide], the IC50 was found to be 101 nM in experiment [2], 38 nM in experiment [1] (setting [3]) and 38 nM in experiment [1] (read-out: TNIK_IC50).

Take `Cc1ccc(Cl)cc1NC(=O)c1ccc(-c2c(-c3ccc(F)cc3)ncn2C2CCCC2)o1` [Compound 17, N-(5-chloro-2-methylphenyl)-5-(1-cyclopentyl-4-(4-fluorophenyl)-1H-imidazol-5-yl)furan-2-carboxamide]: the IC50 in experiment [2] was determined as 106 nM; in experiment [1] (setting [3]) it was 46 nM; in experiment [1] (read-out: TNIK_IC50), 46 nM.

As to `COc1ccc(NC(=O)c2ccc(-c3c(-c4ccc(F)cc4)ncn3C3CCCC3)o2)c(OC)c1` [Compound 18, 5-(1-cyclopentyl-4-(4-fluorophenyl)-1H-imidazol-5-yl)-N-(2,4-dimethoxyphenyl)furan-2-carboxamide], the IC50 is 4.05 nM in experiment [2], less than 10 nM in experiment [1] (setting [3]) and 2.33 nM in experiment [1] (read-out: TNIK_IC50).

As to `COc1cc(NC(=O)c2ccc(-c3c(-c4ccc(F)cc4)ncn3C3CCCC3)o2)cc(OC)c1` [Compound 19, 5-(1-cyclopentyl-4-(4-fluorophenyl)-1H-imidazol-5-yl)-N-(3,5-dimethoxyphenyl)furan-2-carboxamide], the IC50 in experiment [2] amounted to 204 nM; in experiment [1] (setting [3]) it was 231 nM; in experiment [1] (read-out: TNIK_IC50), 231 nM.

Regarding `Cc1cccc(NC(=O)c2ccc(-c3c(-c4ccc(F)cc4)ncn3C3CCCC3)o2)c1C` [Compound 20, 5-(1-cyclopentyl-4-(4-fluorophenyl)-1H-imidazol-5-yl)-N-(2,3-dimethylphenyl)furan-2-carboxamide], the IC50 turned out to be 129 nM in experiment [2], 136 nM in experiment [1] (setting [3]) and 136 nM in experiment [1] (read-out: TNIK_IC50).

On to `Cc1cccc(C)c1NC(=O)c1ccc(-c2c(-c3ccc(F)cc3)ncn2C2CCCC2)o1` [Compound 21, 5-(1-cyclopentyl-4-(4-fluorophenyl)-1H-imidazol-5-yl)-N-(2,6-dimethylphenyl)furan-2-carboxamide], for which the figures for the IC50 in experiment [2], in experiment [1] (setting [3]) and in experiment [1] (read-out: TNIK_IC50) were greater than 1000 nM, 214 nM and 214 nM, respectively.

For the compound `CCOC(=O)c1cccc(NC(=O)c2ccc(-c3c(-c4ccc(F)cc4)ncn3C3CCCC3)o2)c1` [Compound 22, ethyl 3-(5-(1-cyclopentyl-4-(4-fluorophenyl)-1H-imidazol-5-yl)furan-2-carboxamido)benzoate], the IC50 was greater than 1000 nM in experiment [2], 483 nM in experiment [1] (setting [3]) and 483 nM in experiment [1] (read-out: TNIK_IC50).

As for `CCc1ccc(NC(=O)c2ccc(-c3c(-c4ccc(F)cc4)ncn3C3CCCC3)o2)cc1` [Compound 23, 5-(1-cyclopentyl-4-(4-fluorophenyl)-1H-imidazol-5-yl)-N-(4-ethylphenyl)furan-2-carboxamide], the IC50 in experiment [2] came out at 102 nM; in experiment [1] (setting [3]), 55 nM; in experiment [1] (read-out: TNIK_IC50), 55 nM.

As for `O=C(Nc1cccc(F)c1)c1ccc(-c2c(-c3ccc(F)cc3)ncn2C2CCCC2)o1` [Compound 25, 5-(1-cyclopentyl-4-(4-fluorophenyl)-1H-imidazol-5-yl)-N-(3-fluorophenyl)furan-2-carboxamide], the IC50 in experiment [2] amounted to 83.4 nM; in experiment [1] (setting [3]) it was 59 nM; in experiment [1] (read-out: TNIK_IC50), 59 nM.

On to `O=C(Nc1ccc(F)cc1)c1ccc(-c2c(-c3ccc(F)cc3)ncn2C2CCCC2)o1` [Compound 26, 5-(1-cyclopentyl-4-(4-fluorophenyl)-1H-imidazol-5-yl)-N-(4-fluorophenyl)furan-2-carboxamide], for which the IC50 was 97.9 nM in experiment [2], 55 nM in experiment [1] (setting [3]) and 55 nM in experiment [1] (read-out: TNIK_IC50).
